Source: patent publication US8829034B2, “Compounds which modulate the CB2 receptor” (Boehringer Ingerlheim International GmbH, priority 2006, dated 2014)
Where two headings read alike, the source gives them in different places.

Target: T1, human CB2R (Homo sapiens, UniProt P34972)
T1 construct: host or cells: CHO cells
Test: CB2R mediated modulation of cAMP synthesis
Format: cell-based
Conditions: for agonistic activity: found through the use of the above described assays
In short: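 CHO cells expressing human CB2R were treated with compound for 30 min at 37 °C in buffer containing 1 mM IBMX, 0.25% BSA and 10 uM forskolin. cAMP was measured after lysis. EC50 was taken as 50% inhibition of forskolin-stimulated cAMP, with 100% defined by 1 uM CP55940, using a four-parameter logistic fit.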

T1 sequence (P34972 whole entry): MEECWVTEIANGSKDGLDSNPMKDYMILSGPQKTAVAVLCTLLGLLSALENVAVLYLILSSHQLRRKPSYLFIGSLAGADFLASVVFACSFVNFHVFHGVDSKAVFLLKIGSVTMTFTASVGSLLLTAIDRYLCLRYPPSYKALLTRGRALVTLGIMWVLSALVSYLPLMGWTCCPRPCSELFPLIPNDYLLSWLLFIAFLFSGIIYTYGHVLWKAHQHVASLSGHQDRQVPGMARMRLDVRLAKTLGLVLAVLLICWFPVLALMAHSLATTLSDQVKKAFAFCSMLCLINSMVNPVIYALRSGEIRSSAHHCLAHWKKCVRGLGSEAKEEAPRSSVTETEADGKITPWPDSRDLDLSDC

Row | agonistic activity | SMILES | EC50 | EC50 (CHO cells expressing human CB2R, inhibition of forskolin-stimulated cAMP synthesis, compounds having agonist activity, read-out: CB2 EC50)
1 | agonistic activity | CCCS(=O)(=O)C(C)(C)C(=O)Nc1cc(C(F)(F)F)ccn1 [2-Methyl-2-(propane-1-sulfonyl)-N-(4-trifluoromethyl-pyridin-2-yl)-propionamide] | – | –
2 | agonistic activity | CCCS(=O)(=O)C(C)(C)C(=O)Nc1cc(CC(C)(C)C)no1 [N-[3-(2,2-Dimethyl-propyl)-isoxazol-5-yl]-2-methyl-2-(propane-1-sulfonyl)-propionamide] | – | –
3 | agonistic activity | CCCS(=O)(=O)C(C)(C)C(=O)Nc1ccc(-c2ccccc2)cn1 [2-Methyl-N-(5-phenyl-pyridin-2-yl)-2-(propane-1-sulfonyl)-propionamide] | – | –
4 | agonistic activity | CCCS(=O)(=O)C(C)(C)C(=O)Nc1nc2ccccc2s1 [N-Benzothiazol-2-yl-2-methyl-2-(propane-1-sulfonyl)-propionamide] | – | –
5 | agonistic activity | CC(C)S(=O)(=O)C(C)(C)C(=O)Nc1ccc(C(C)(C)C)cc1 [N-(4-tert-Butyl-phenyl)-2-methyl-2-(propane-2-sulfonyl)-propionamide] | – | –
6 | agonistic activity | CC(C)(C(=O)Nc1nc2ccccc2o1)S(=O)(=O)CC1CCOCC1 [N-Benzooxazol-2-yl-2-methyl-2-(tetrahydro-pyran-4-ylmethanesulfonyl)-propionamide] | – | –
7 | agonistic activity | CC(C)S(=O)(=O)C(C)(C)C(=O)Nc1nc(-c2cccnc2)cs1 [2-Methyl-2-(propane-2-sulfonyl)-N-(4-pyridin-3-yl-thiazol-2-yl)-propionamide] | – | –
8 | agonistic activity | CCS(=O)(=O)C(C)(C)C(=O)Nc1cc(C(C)(C)C)nn1C [N-(5-tert-Butyl-2-methyl-2H-pyrazol-3-yl)-2-ethanesulfonyl-2-methyl-propionamide] | – | –
9 | agonistic activity | Cn1nc(-c2ccccc2)cc1NC(=O)C(C)(C)S(=O)(=O)C1CCOCC1 [2-Methyl-N-(2-methyl-5-phenyl-2H-pyrazol-3-yl)-2-(tetrahydro-pyran-4-sulfonyl)-propionamide] | – | –
10 | agonistic activity | Cn1nc(C(C)(C)C)cc1NC(=O)C(C)(C)S(=O)(=O)C[C@H]1CCC(=O)N1 [N-(5-tert-Butyl-2-methyl-2H-pyrazol-3-yl)-2-methyl-2-((R)-5-oxo-pyrrolidin-2-ylmethanesulfonyl)-propionamide] | – | –
11 | agonistic activity | CC(C)(C(=O)Nc1ccc(C(F)(F)F)cn1)S(=O)(=O)CC1CCNCC1 [2-Methyl-2-(piperidin-4-ylmethanesulfonyl)-N-(5-trifluoromethyl-pyridin-2-yl)-propionamide] | – | –
12 | agonistic activity | CCS(=O)(=O)C(C)(C)C(=O)Nc1cc(C(C)(C)C)on1 [N-(5-tert-Butyl-isoxazol-3-yl)-2-ethanesulfonyl-2-methyl-propionamide] | – | –

Continued, molecule first:

Row | SMILES | agonistic activity | EC50 | EC50 (CHO cells expressing human CB2R, inhibition of forskolin-stimulated cAMP synthesis, compounds having agonist activity, read-out: CB2 EC50)
13 | CC(C)(C)c1cc(NC(=O)C2(S(=O)(=O)CC3CCOCC3)CCC2)on1 [1-(Tetrahydro-pyran-4-ylmethanesulfonyl)-cyclobutanecarboxylic acid (3-tert-butyl-isoxazol-5-yl)-amide] | agonistic activity | 6.2 nM | –
14 | CC(C)CCS(=O)(=O)C(C)(C)C(=O)Nc1cc(C(C)(C)C)no1 [N-(3-tert-Butyl-isoxazol-5-yl)-2-methyl-2-(3-methyl-butane-1-sulfonyl)-propionamide] | agonistic activity | – | 0.04 nM
15 | CC(C)(C)c1cc(NC(=O)C(C)(C)S(=O)(=O)CC2CCCO2)on1 (centres unmarked) [N-(3-tert-Butyl-isoxazol-5-yl)-2-methyl-2-(tetrahydro-furan-2-ylmethanesulfonyl)-propionamide] | agonistic activity | 31.5 nM | –
16 | CC(C)(C(=O)Nc1ccc(C(F)(F)F)cn1)S(=O)(=O)C1CCCCCC1 [2-Cycloheptanesulfonyl-2-methyl-N-(5-trifluoromethyl-pyridin-2-yl)-propionamide] | agonistic activity | 7.1 nM | –
17 | CC(C)(C)c1cc(NC(=O)C(C)(C)S(=O)(=O)C2CCCCCC2)no1 [N-(5-tert-Butyl-isoxazol-3-yl)-2-cycloheptanesulfonyl-2-methyl-propionamide] | agonistic activity | 0.1 nM | –
18 | Cc1c(-c2ccccc2)nn(C)c1NC(=O)C(C)(C)S(=O)(=O)CC1CCOCC1 [N-(2,4-Dimethyl-5-phenyl-2H-pyrazol-3-yl)-2-methyl-2-(tetrahydro-pyran-4-ylmethanesulfonyl)-propionamide] | agonistic activity | – | –
19 | CC(C)(C)c1cc(NC(=O)C(C)(C)S(=O)(=O)CC2CCN(S(C)(=O)=O)C2)no1 (centres unmarked) [N-(5-tert-Butyl-isoxazol-3-yl)-2-(1-methanesulfonyl-pyrrolidin-3-ylmethanesulfonyl)-2-methyl-propionamide] | agonistic activity | 44.1 nM | –
20 | CC(C)(C(=O)Nc1cc(C(F)(F)F)ccn1)S(=O)(=O)CC1CCOCC1 [2-Methyl-2-(tetrahydro-pyran-4-ylmethanesulfonyl)-N-(4-trifluoromethyl-pyridin-2-yl)-propionamide] | agonistic activity | – | –
21 | CCCS(=O)(=O)C(C)(C)C(=O)Nc1nc(C2CCCCC2)cs1 [N-(4-Cyclohexyl-thiazol-2-yl)-2-methyl-2-(propane-1-sulfonyl)-propionamide] | agonistic activity | 31.1 nM | –
22 | CC(C)S(=O)(=O)C(C)(C)C(=O)Nc1nc2ccccc2s1 [N-Benzothiazol-2-yl-2-methyl-2-(propane-2-sulfonyl)-propionamide] | agonistic activity | – | –
23 | Cc1nc(NC(=O)C(C)(C)S(=O)(=O)CC2CCOCC2)sc1C(C)(C)C [N-(5-tert-Butyl-4-methyl-thiazol-2-yl)-2-methyl-2-(tetrahydro-pyran-4-ylmethanesulfonyl)-propionamide] | agonistic activity | 0.2 nM | –
24 | CC(C)(C)c1csc(NC(=O)C(C)(C)S(=O)(=O)CC2CCOCC2)n1 [N-(4-tert-Butyl-thiazol-2-yl)-2-methyl-2-(tetrahydro-pyran-4-ylmethanesulfonyl)-propionamide] | agonistic activity | – | –
25 | CC(C)(C)c1ccc(NC(=O)C(C)(C)S(=O)(=O)CC2CCOCC2)cc1 [N-(4-tert-Butyl-phenyl)-2-methyl-2-(tetrahydro-pyran-4-ylmethanesulfonyl)-propionamide] | agonistic activity | 3.3 nM | –
26 | CC(C)(C(=O)Nc1ccc(C(F)(F)F)cc1)S(=O)(=O)CC1CCOCC1 [2-Methyl-2-(tetrahydro-pyran-4-ylmethanesulfonyl)-N-(4-trifluoromethyl-phenyl)-propionamide] | agonistic activity | – | –
27 | CC(C)(C(=O)Nc1ccc(C(F)(F)F)cn1)S(=O)(=O)CC1CCCO1 (centres unmarked) [2-Methyl-2-(tetrahydro-furan-2-ylmethanesulfonyl)-N-(5-trifluoromethyl-pyridin-2-yl)-propionamide] | agonistic activity | – | –
28 | CC(C)(C(=O)Nc1nc(-c2ccccc2)cs1)S(=O)(=O)CC1CCOCC1 [2-Methyl-N-(4-phenyl-thiazol-2-yl)-2-(tetrahydro-pyran-4-ylmethanesulfonyl)-propionamide] | agonistic activity | 7.1 nM | –
